Measured values from ChEMBL document CHEMBL1201862, “PubChem BioAssay data set” (2004).
“And” between values parts separate entries of the source, which are not always exact repeats. Identical values can stand only once.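 Exposure lasted 48 hours, with cells grown in 96-well plates and compounds tested at five concentrations. Abbreviation: GI50, concentration required for 50% inhibition of growth.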 The source made the active and inactive calls. Rule as the data show it: active = GI50 up to about 1.1 µM and inactive = higher.

Columns and labels:
Experiment in all cases: inhibition of tumour cell growth, NCI panel, 48 h
786-0 = tested on: 786-0
A498 = tested on: A498
A549 = tested on: A549
ACHN = tested on: ACHN
BT-549 = tested on: BT-549
CAKI-1 = tested on: CAKI-1
CCRF-CEM = tested on: CCRF-CEM
COLO 205 = tested on: COLO 205
HCC 2998 = tested on: HCC 2998
HCT-116 = tested on: HCT-116
HCT-15 = tested on: HCT-15
HL-60 = tested on: HL-60
HOP-92 = tested on: HOP-92
HT-29 = tested on: HT-29
Hs-578T = tested on: Hs-578T
K562 = tested on: K562
KM12 = tested on: KM12
LOX IMVI = tested on: LOX IMVI
M14 = tested on: M14
MCF7 = tested on: MCF7
MDA-MB-231 = tested on: MDA-MB-231
MDA-MB-435 = tested on: MDA-MB-435
MDA-N = tested on: MDA-N
MOLT-4 = tested on: MOLT-4
Malme-3M = tested on: Malme-3M
NCI-H226 = tested on: NCI-H226
NCI-H23 = tested on: NCI-H23
NCI-H460 = tested on: NCI-H460
NCI-H522 = tested on: NCI-H522
NCI/ADR-RES = tested on: NCI/ADR-RES
OVCAR-3 = tested on: OVCAR-3
OVCAR-4 = tested on: OVCAR-4
OVCAR-5 = tested on: OVCAR-5
OVCAR-8 = tested on: OVCAR-8
PC-3 = tested on: PC-3
RPMI-8226 = tested on: RPMI-8226
RXF 393 = tested on: RXF 393
SF-268 = tested on: SF-268
SF-295 = tested on: SF-295
SF-539 = tested on: SF-539
SK-MEL-2 = tested on: SK-MEL-2
SK-MEL-5 = tested on: SK-MEL-5
SN12C = tested on: SN12C
SR = tested on: SR
SW-620 = tested on: SW-620
T47D = tested on: T47D
TK-10 = tested on: TK-10
U-251 = tested on: U-251
UACC-257 = tested on: UACC-257
UO-31 = tested on: UO-31
DU-145 = tested on: DU-145
EKVX = tested on: EKVX
HOP-62 = tested on: HOP-62
IGROV-1 = tested on: IGROV-1
SK-MEL-28 = tested on: SK-MEL-28
SK-OV-3 = tested on: SK-OV-3
SNB-19 = tested on: SNB-19
SNB-75 = tested on: SNB-75
UACC-62 = tested on: UACC-62

SMILES: CC(=O)O[C@H]1CC2C(C3CC[C@H](C(C)CCC(N)=O)[C@]31C)[C@H](OC(C)=O)C[C@@H]1CC3(CC[C@]21C)OOC1(CCC(C)CC1)OO3 (some centres not stated)
- GI50 (786-0): 1.86 µM (inactive) and 1.77 µM (inactive)
- GI50 (A498): 11.7 µM (inactive) and 14.3 µM (inactive)
- GI50 (A549): 1.24 µM (inactive) and 1.79 µM (inactive)
- GI50 (ACHN): 1.8 µM (inactive)
- GI50 (BT-549): 2.11 µM (inactive) and 1.72 µM (inactive)
- GI50 (CAKI-1): 2.29 µM (inactive) and 1.71 µM (inactive)
- GI50 (CCRF-CEM): 1.52 µM (inactive)
- GI50 (COLO 205): 1.56 µM (inactive)
- GI50 (HCC 2998): 2.06 µM (inactive) and 2.38 µM (inactive)
- GI50 (HCT-116): 1.94 µM (inactive) and 2.26 µM (inactive)
- GI50 (HCT-15): 1.93 µM
- GI50 (HL-60): 2.32 µM (inactive) and 2.93 µM (inactive)
- GI50 (HOP-92): 2.79 µM (inactive) and 1.65 µM (inactive)
- GI50 (HT-29): 2.51 µM (inactive) and 1.54 µM (inactive)
- GI50 (Hs-578T): 2.07 µM (inactive) and 2.38 µM (inactive)
- GI50 (K562): 2.48 µM (inactive) and 3.99 µM (inactive)
- GI50 (KM12): 1.98 µM (inactive) and 1.83 µM (inactive)
- GI50 (LOX IMVI): 1.83 µM (inactive) and 1.92 µM (inactive)
- GI50 (M14): 2.22 µM (inactive) and 2.94 µM (inactive)
- GI50 (MCF7): 2.04 µM (inactive) and 2.65 µM (inactive)
- GI50 (MDA-MB-231): 2.21 µM (inactive)
- GI50 (MDA-MB-435): 2.06 µM (inactive) and 1.61 µM (inactive)
- GI50 (MDA-N): 1.87 µM (inactive) and 2.07 µM (inactive)
- GI50 (MOLT-4): 1.72 µM (inactive) and 1.47 µM (inactive)
- GI50 (Malme-3M): 2.12 µM (inactive) and 2.53 µM (inactive)
- GI50 (NCI-H226): 1.47 µM (inactive) and 2.09 µM (inactive)
- GI50 (NCI-H23): 1.74 µM (inactive) and 2.23 µM (inactive)
- GI50 (NCI-H460): 1.62 µM (inactive) and 2.28 µM (inactive)
- GI50 (NCI-H522): 1.4 µM (inactive) and 1.71 µM (inactive)
- GI50 (NCI/ADR-RES): 2.55 µM (inactive) and 1.65 µM (inactive)
- GI50 (OVCAR-3): 2.07 µM (inactive) and 1.79 µM (inactive)
- GI50 (OVCAR-4): 1.32 µM (inactive) and 1.48 µM (inactive)
- GI50 (OVCAR-5): 2.09 µM (inactive) and 2.04 µM (inactive)
- GI50 (OVCAR-8): 1.71 µM (inactive) and 1.47 µM (inactive)
- GI50 (PC-3): 2.69 µM (inactive)
- GI50 (RPMI-8226): 1.61 µM (inactive) and 1.5 µM (inactive)
- GI50 (RXF 393): 1.95 µM (inactive) and 2.69 µM (inactive)
- GI50 (SF-268): 1.62 µM (inactive) and 1.83 µM (inactive)
- GI50 (SF-295): 2.99 µM (inactive) and 2 µM (inactive)
- GI50 (SF-539): 1.9 µM (inactive) and 2.7 µM (inactive)
- GI50 (SK-MEL-2): 1.91 µM (inactive)
- GI50 (SK-MEL-5): 1.74 µM (inactive) and 2.96 µM (inactive)
- GI50 (SN12C): 1.67 µM (inactive) and 2.27 µM (inactive)
- GI50 (SR): 867 nM (active) and 1.47 µM (inactive)
- GI50 (SW-620): 3.02 µM (inactive) and 2.11 µM (inactive)
- GI50 (T47D): 1.49 µM (inactive) and 2.01 µM (inactive)
- GI50 (TK-10): 1.95 µM (inactive) and 2.72 µM (inactive)
- GI50 (U-251): 1.66 µM (inactive)
- GI50 (UACC-257): 5.37 µM (inactive) and 4.6 µM (inactive)
- GI50 (UO-31): 1.56 µM (inactive)

SMILES: CCc1cc(=O)n(/C(C)=C/c2ccccc2)n1C
- GI50 (A549): > 100 µM (inactive)
- GI50 (ACHN): > 100 µM (inactive)
- GI50 (BT-549): > 100 µM (inactive)
- GI50 (CAKI-1): > 100 µM (inactive)
- GI50 (CCRF-CEM): > 100 µM (inactive)
- GI50 (COLO 205): > 100 µM (inactive)
- GI50 (DU-145): > 100 µM (inactive)
- GI50 (EKVX): > 100 µM (inactive)
- GI50 (HCC 2998): > 100 µM (inactive)
- GI50 (HCT-116): > 100 µM (inactive)
- GI50 (HOP-62): > 100 µM (inactive)
- GI50 (HOP-92): > 100 µM (inactive)
- GI50 (HT-29): > 100 µM (inactive)
- GI50 (Hs-578T): > 100 µM (inactive)
- GI50 (IGROV-1): > 100 µM (inactive)
- GI50 (K562): > 100 µM (inactive)
- GI50 (KM12): > 100 µM (inactive)
- GI50 (LOX IMVI): > 100 µM (inactive)
- GI50 (M14): > 100 µM (inactive)
- GI50 (MCF7): > 100 µM (inactive)
- GI50 (MDA-MB-231): > 100 µM (inactive)
- GI50 (MDA-MB-435): > 100 µM (inactive)
- GI50 (MDA-N): > 100 µM (inactive)
- GI50 (MOLT-4): > 100 µM (inactive)
- GI50 (NCI-H226): > 100 µM (inactive)
- GI50 (NCI-H23): > 100 µM (inactive)
- GI50 (NCI-H460): > 100 µM (inactive)
- GI50 (NCI/ADR-RES): > 100 µM (inactive)
- GI50 (OVCAR-3): > 100 µM (inactive)
- GI50 (OVCAR-4): > 100 µM (inactive)
- GI50 (OVCAR-5): > 100 µM (inactive)
- GI50 (OVCAR-8): > 100 µM (inactive)
- GI50 (PC-3): > 100 µM (inactive)
- GI50 (RPMI-8226): > 100 µM (inactive)
- GI50 (RXF 393): > 100 µM (inactive)
- GI50 (SF-268): > 100 µM (inactive)
- GI50 (SF-295): > 100 µM (inactive)
- GI50 (SF-539): > 100 µM (inactive)
- GI50 (SK-MEL-28): > 100 µM (inactive)
- GI50 (SK-MEL-2): > 100 µM (inactive)
- GI50 (SK-MEL-5): > 100 µM (inactive)
- GI50 (SK-OV-3): > 100 µM (inactive)
- GI50 (SN12C): > 100 µM (inactive)
- GI50 (SNB-19): > 100 µM (inactive)
- GI50 (SNB-75): > 100 µM (inactive)
- GI50 (SW-620): > 100 µM (inactive)
- GI50 (T47D): > 100 µM (inactive)
- GI50 (TK-10): > 100 µM (inactive)
- GI50 (U-251): > 100 µM (inactive)
- GI50 (UACC-257): > 100 µM (inactive)
- GI50 (UACC-62): > 100 µM (inactive)
- GI50 (UO-31): > 100 µM (inactive)
